According to patent EP2821071A1, “Compounds for breast cancer treatment” (Institut d'Investigació Biomèdica de Bellvitge (IDIBELL), priority 2013, dated 2015):
pIC50: −log10 of the molar value.

Columns and labels:
[1] = test system: MCF7-LTED cells; experiment: MTT cell viability assay; format: cell-based
Protocol: (§1) MCF7-LTED cells were established in phenol red-free Roswell Park Memorial Institute medium containing 10% dextran-coated charcoal-stripped fetal bovine serum. Cellular viability was evaluated using a standard methylthiazol tetrazolium (MTT; Sigma-Aldrich) assay. The results of these assays are expressed relative to vehicle treated controls and to the original time point.
MCF7 and MCF7-LTED cells were plated in 384-well microtiter plates and five compound dilutions (1 nM to 10 µM final concentration) from the LOPAC library (1,258 compounds, Sigma-Aldrich) were added to the cultures. Cell viability was assessed after 72 hours using MTT-based assays and the EnVision spectrofluorometer (Perkin-Elmer). The screen was performed in triplicate. The quality of the screen (Z'-factor > 0.5 for all screens) and the data was analyzed using the cell HTS2 module in the ScreenSaver database. The data was normalized between 0 and 1 using positive (1 µM phenylarsene oxide, Sigma-Aldrich) and negative (0.1% dimethyl sulfoxide, Merck) controls for cell viability. For hit selection, the difference between the normalize percentage inhibition (NPI) in MCF7 and MCF7-LTED cells was calculated by subtraction [ΔNPI = NPI(MCF7-LTED) - NPI(MCF7)] and the differentials were clustered with the MeV software package using the Cluster Affinity Search method with the Euclidean distance metric (threshold of 0.7).
Acquired resistance to aromatase inhibitors in postmenopausal women can be modeled in long-term estrogen-deprived (LTED) MCF7 cells. Using this model, a cell-based chemical compound screen was carried out to identify potential therapeutic strategies that could prevent and/or overcome resistance. More than 1,200 compounds were assessed for their differential effect on the viability (as defined by MTT-based assays) of MCF7-LTED cells relative to the parental MCF7 cells.
Having identified the comparative inhibitory effect of YC-1 on the viability of MCF7-LTED cells, we evaluated the effect of this compound on a collection of breast cancer cell lines. […]

[2] = test system: platelet aggregation; conditions: cited from earlier work
[3] = test system: phenylephrine-induced contractions of rabbit aorta; conditions: cited from earlier work
[4] = test system: MCF7 cells; experiment: MTT cell viability assay; format: cell-based; conditions: Homo sapiens, MCF7 cell line
Protocol: as §1
[…] Cell viability was assessed after 72 hours using MTT-based assays and the EnVision spectrofluorometer (Perkin-Elmer). The screen was performed in triplicate. The quality of the screen (Z'-factor > 0.5 for all screens) and the data was analyzed using the cell HTS2 module in the ScreenSaver database. […] For hit selection, the difference between the normalize percentage inhibition (NPI) in MCF7 and MCF7-LTED cells was calculated by subtraction [ΔNPI = NPI(MCF7-LTED) - NPI(MCF7)] and the differentials were clustered with the MeV software package using the Cluster Affinity Search method with the Euclidean distance metric (threshold of 0.7).
Acquired resistance to aromatase inhibitors in postmenopausal women can be modeled in long-term estrogen-deprived (LTED) MCF7 cells. […] More than 1,200 compounds were assessed for their differential effect on the viability (as defined by MTT-based assays) of MCF7-LTED cells relative to the parental MCF7 cells. […]

[5] = test system: MDA-MB-453; experiment: MTT cell viability assay; format: cell-based; conditions: Homo sapiens, MDA-MB-453 cell line
Protocol: as §1
(§2) Having identified the comparative inhibitory effect of YC-1 on the viability of MCF7-LTED cells, we evaluated the effect of this compound on a collection of breast cancer cell lines. […] For the remaining sensitive cell lines (as defined by an IC50 < 10 µM threshold), no associations with ERα and/or progesterone receptor (PR) and/or human epidermal growth factor receptor 2 (HER2) were observed (Table 1). Table 1. YC-1 IC50 (µM) values in breast cancer cell lines

[6] = test system: ZR751; experiment: MTT cell viability assay; format: cell-based; conditions: Homo sapiens, ZR-75-1, ZR751 cell line
Protocol: as §1, §2

[7] = test system: MCF7-HER2; experiment: MTT cell viability assay; format: cell-based; conditions: MCF7-HER2 cell line
Protocol: as §1, §2

[8] = test system: SKBR3; experiment: MTT cell viability assay; format: cell-based; conditions: Homo sapiens, SK-BR-3, SKBR3 cell line
Protocol: as §1, §2

[9] = test system: AU565; experiment: MTT cell viability assay; format: cell-based; conditions: Homo sapiens, AU565 cell line
Protocol: as §1, §2

[10] = test system: MDA-MB-468; experiment: MTT cell viability assay; format: cell-based; conditions: Homo sapiens, MDA-MB-468 cell line
Protocol: as §1, §2

[11] = test system: MCF10A; experiment: MTT cell viability assay; format: cell-based; conditions: Homo sapiens, MCF-10A, MCF10A cell line
Protocol: as §1, §2

[12] = test system: MDA-MB-231; experiment: MTT cell viability assay; format: cell-based; conditions: Homo sapiens, MDA-MB-231 cell line
Protocol: as §1, §2

[13] = test system: HCC1937; experiment: MTT cell viability assay; format: cell-based; conditions: Homo sapiens, HCC1937 cell line
Protocol: as §1, §2

[14] = test system: BT474; experiment: MTT cell viability assay; format: cell-based; conditions: Homo sapiens, BT-474, BT474 cell line
Protocol: as §1, §2

[15] = test system: T47D; experiment: MTT cell viability assay; format: cell-based; conditions: Homo sapiens, T47D cell line
Protocol: as §1, §2

[16] = test system: ERα; experiment: Subcellular localization of ERα after YC-1 treatment; format: cell-based; conditions: MCF7-LTED and MCF7 cells; no substantial differences between the two
From the text: (§3) To determine the YC-1 mechanism of action that may be selective in models of acquired resistance, the subcellular localization of ERα was first examined. Although ERα levels and localization were altered by YC-1 treatment, no substantial differences were observed between MCF7-LTED and MCF7 cells. Subsequently, whole-genome expression data was obtained and analyzed for the basal and YC-1-exposed conditions in both cell lines. Consistent with the results described above, expression of the ribosome pathway clearly distinguished MCF7-LTED and MCF7 cells in basal conditions. […] In contrast, exposure of MCF7-LTED cells to YC-1 led to alteration of the cell cycle pathway and a decrease in a central positive regulator of the cell cycle, E2F1.

[17] = test system: phospho-serine 235/236 ribosomal S6 protein; experiment: Phospho-S6 after YC-1 exposure of MCF7 cells; format: cell-based; conditions: MCF7 cells exposed to YC-1
From the text: as §3

[18] = test system: E2F1; experiment: E2F1 after YC-1 exposure of MCF7-LTED cells; format: cell-based; conditions: MCF7-LTED cells exposed to YC-1
From the text: as §3

For `Nc1nc(-c2nn(Cc3ccccc3F)c3ncccc23)ncc1C1CC1` [BAY 41-2272], the “differences in cell viability” value ([1]; MCF7-LTED versus MCF7 cells, validation, Fig. 1C) is listed as “differences in cell viability, although of lesser magnitude”, the pIC50 [2] is listed as 7.44 and the pIC50 [3] is listed as 6.52.

With `COc1cc2ncnc(Nc3ccc(F)c(Cl)c3)c2cc1OCCCN1CCOCC1` [Gefitinib, reference compound] the “differences in the growth rate of the two cellular models” value ([1]; MCF7-LTED versus MCF7 cells, Fig. 1D) was “No differences”.

In the case of `OCc1ccc(-c2nn(Cc3ccccc3)c3ccccc23)o1` [YC-1, 3-(5'-hydroxymethyl-2'-furyl)-1-benzylindazole], the pIC50 [4] was 3.88, the pIC50 ([1]; MCF7-LTED cell line (long-term estrogen-deprived), cell viability) was 5.31 and the pIC50 [5] was 3.60. It also gave a pIC50 [6] of 6.52, a pIC50 [7] of 3.73 and a pIC50 [8] of 5.80. For the same compound, the pIC50 [9] was 5.89, the pIC50 [10] was 4.31 and the pIC50 [11] was 4.00. For the same compound, the pIC50 [12] was 2.35, the pIC50 [13] was 3.60 and the pIC50 [14] was 3.50. The pIC50 [15] was 5.09, the “ERα levels and localization” value [16] was “altered” and the “phospho-serine 235/236 ribosomal S6 protein” value [17] was “decrease”. The E2F1 [18] was “decrease”.
